The text below walks through data of US11702404B2, “GLP-1R modulating compounds” (priority 2019, dated 2023).

Usually EC50 stands for the midpoint of the concentration-response curve.

Read-outs that look alike come from different tables or passages of the source.

Data set [1] has as its target GLP-1R (Homo sapiens, UniProt P43220). Briefly: GLP-1R activation: cAMP increase in CHO cells stably expressing GLP-1R. The class given is cell-based.
A short description of data set [2]: Microsomal stability, human liver microsomes (predicted hepatic clearance). As to conditions: predicted from in vitro microsomal stability data.
Where [3] appears, read: cAMP increase, CHO cells stably expressing GLP-1R, 10 point dose response, 30 minutes incubation, read-out: EC50.

GLP-1R, sequence (P43220 24-463): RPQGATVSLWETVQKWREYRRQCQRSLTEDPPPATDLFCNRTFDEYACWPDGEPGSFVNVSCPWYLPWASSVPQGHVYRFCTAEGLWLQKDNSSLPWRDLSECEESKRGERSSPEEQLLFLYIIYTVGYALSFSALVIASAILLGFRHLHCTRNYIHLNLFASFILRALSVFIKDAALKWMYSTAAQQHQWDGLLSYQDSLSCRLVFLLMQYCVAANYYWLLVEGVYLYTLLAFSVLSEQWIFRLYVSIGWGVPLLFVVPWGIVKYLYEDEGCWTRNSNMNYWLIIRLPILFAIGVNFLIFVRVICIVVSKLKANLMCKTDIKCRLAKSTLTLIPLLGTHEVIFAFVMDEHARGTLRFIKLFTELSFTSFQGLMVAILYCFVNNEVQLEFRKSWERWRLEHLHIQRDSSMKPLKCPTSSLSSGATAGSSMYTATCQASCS

In the case of `COCCn1c(Cc2ccc(-c3cccc(OCc4ccc(C#CC5CC5)cc4F)n3)cc2F)nc2ccc(C(=O)O)cc21` [Example 843], the concentration giving a half-maximal response (EC50) in data set [1] (setting [3]) is 17.2 nM. Moreover, the “Predicted Hepatic Clearance (Pred. Cl.)” value in data set [2] was 2.67 mL/min/kg.
The matching figures for `COCCn1c(Cc2cc(F)c(-c3cccc(OCc4ccc(C#N)cc4COC)n3)cc2F)nc2ccc(C(=O)O)cc21` [Example 844, 2-(4-(6-((4-cyano-2-(methoxymethyl)benzyl)oxy)pyridin-2-yl)-2,5-difluorobenzyl)-1-(2-methoxyethyl)-1H-benzo[d]imidazole-6-carboxylic acid]: 13 nM and 2.5 mL/min/kg.
For the compound `COCCn1c(Cc2ccc(-c3cccc(OCc4ccc(COC)cc4F)n3)cc2F)nc2ccc(C(=O)O)cc21` [Example 845, 2-(2-fluoro-4-(6-((2-fluoro-4-(methoxymethyl)benzyl)oxy)pyridin-2-yl)benzyl)-1-(2-methoxyethyl)-1H-benzo[d]imidazole-6-carboxylic acid], the concentration giving a half-maximal response (EC50) in data set [1] (EC50 (nM)) was determined as 18 nM. Moreover, the “Predicted Hepatic Clearance (Pred. Cl.)” value in data set [2] was 12.3 mL/min/kg.
`CCOC(=O)c1ccc2nc(Cc3cc(F)c(-c4cccc(OCc5ccc(C#N)cc5F)n4)cc3F)n(CCOC)c2c1` [Example 847, Ethyl 2-(4-(6-((4-cyano-2-fluorobenzyl)oxy)pyridin-2-yl)-2,5-difluorobenzyl)-1-(2-methoxyethyl)-1H-benzo[d]imidazole-6-carboxylate]: the EC50 in data set [1] (setting [3]) amounted to 537 nM. For the same compound, the “Predicted Hepatic Clearance (Pred. Cl.)” value in data set [2] was 6 mL/min/kg.
On the same counts, the results for `CC(=O)N1C[C@H](O)C[C@@H]1Cn1c(Cc2cc(F)c(-c3cccc(OCc4ccc(C#N)cc4F)n3)cc2F)nc2ccc(C(=O)O)cc21` [Example 848] are 4.08 nM and 2.83 mL/min/kg.
`CC(=O)N1CC2CC1(Cn1c(Cc3cc(F)c(-c4cccc(OCc5ccc(C#N)cc5F)n4)cc3F)nc3ccc(C(=O)O)cc31)C2` [Example 849, 1-((2-acetyl-2-azabicyclo[2.1.1]hexan-1-yl)methyl)-2-(4-(6-((4-cyano-2-fluorobenzyl)oxy)pyridin-2-yl)-2,5-difluorobenzyl)-1H-benzo[d]imidazole-6-carboxylic acid]: the EC50 in data set [1] (read-out: EC50) was 14.2 nM. In addition, in data set [2], the “Predicted Hepatic Clearance (Pred. Cl.)” value is 5.33 mL/min/kg.
Regarding `COc1cc(C#N)ncc1COc1cccc(-c2cc(F)c(Cc3nc4ccc(C(=O)O)cc4n3C[C@@H]3CCO3)cc2F)n1` [Example 850, (S)-2-(4-(6-((6-Cyano-4-methoxypyridin-3-yl)methoxy)pyridin-2-yl)-2,5-difluorobenzyl)-1-(oxetan-2-ylmethyl)-1H-benzo[d]imidazole-6-carboxylic acid], in data set [1] (setting [3]), the EC50 was determined as 0.23 nM. Besides, in data set [2], the “Predicted Hepatic Clearance (Pred. Cl.)” value was 3.33 mL/min/kg.
On the same counts, the results for `O=C(O)c1ccc2nc(Cc3cc(F)c(-c4cccc(OCc5cnc(Cl)cc5F)n4)cc3F)n(C[C@@H]3CCO3)c2c1` [Example 851] are 0.25 nM and 2.5 mL/min/kg.
On the same counts, the results for `N#Cc1ccc(COc2ccc(F)c(-c3cc(F)c(Cc4nc5c(F)cc(C(=O)O)cc5n4C[C@@H]4CCO4)cc3F)n2)cn1` [Example 852, (S)-2-(4-(6-((6-cyanopyridin-3-yl)methoxy)-3-fluoropyridin-2-yl)-2,5-difluorobenzyl)-4-fluoro-1-(oxetan-2-ylmethyl)-1H-benzo[d]imidazole-6-carboxylic acid] are 0.24 nM and 4.5 mL/min/kg.
The matching figures for `COc1cc(Cl)ncc1COc1cccc(-c2cc(F)c(Cc3nc4ccc(C(=O)O)cc4n3C[C@@H]3CCO3)cc2F)n1` [Example 853]: 0.15 nM and 9 mL/min/kg.
Turning to `NC(=O)c1cc(F)c(COc2cccc(-c3cc(F)c(Cc4nc5ccc(C(=O)O)cc5n4C[C@@H]4CCO4)cc3F)n2)cn1` [Example 854, (S)-2-(4-(6-((6-carbamoyl-4-fluoropyridin-3-yl)methoxy)pyridin-2-yl)-2,5-difluorobenzyl)-1-(oxetan-2-ylmethyl)-1H-benzo[d]imidazole-6-carboxylic acid], in data set [1] (setting [3]), the EC50 was found to be 0.55 nM. For the same compound, the “Predicted Hepatic Clearance (Pred. Cl.)” value in data set [2] is 2.33 mL/min/kg.
The matching figures for `COCCn1c(Cc2cnc(-c3cccc(OCc4ccc(C#N)cc4F)n3)c(F)c2)nc2ccc(C(=O)O)cc21` [Example 855]: 12.6 nM and 5.5 mL/min/kg.
Regarding `NC(=O)c1ccc(COc2cccc(-c3cc(F)c(Cc4nc5ccc(C(=O)O)cc5n4C[C@@H]4CCO4)cc3F)n2)c(OC(F)F)n1` [Example 857, (S)-2-(4-(6-((6-carbamoyl-2-(difluoromethoxy)pyridin-3-yl)methoxy)pyridin-2-yl)-2,5-difluorobenzyl)-1-(oxetan-2-ylmethyl)-1H-benzo[d]imidazole-6-carboxylic acid], in data set [1] (setting [3]), the EC50 worked out at 0.35 nM. Moreover, the “Predicted Hepatic Clearance (Pred. Cl.)” value in data set [2] was 3.17 mL/min/kg.
On the same counts, the results for `N#Cc1ccc(COc2cccc(-c3cc(F)c(Cc4nc5ccc(C(=O)O)cc5n4C[C@@H]4CCO4)cc3F)n2)c(OC(F)F)n1` [Example 858, (S)-2-(4-(6-((6-cyano-2-(difluoromethoxy)pyridin-3-yl)methoxy)pyridin-2-yl)-2,5-difluorobenzyl)-1-(oxetan-2-ylmethyl)-1H-benzo[d]imidazole-6-carboxylic acid] are 2.27 nM and 8.83 mL/min/kg.
On the same counts, the results for `COCCn1c(Cc2cc(F)c(-c3cccc(OCc4ccc(C#N)c(F)c4F)n3)cc2F)nc2ccc(C(=O)O)cc21` [Example 859] are 11.6 nM and 1.83 mL/min/kg.
For the compound `COCCn1c(Cc2cc(F)c(-c3cccc(OCc4ccc(C(F)F)nc4)n3)cc2F)nc2ccc(C(=O)O)cc21` [Example 860], the EC50 in data set [1] (setting [3]) worked out at 22.6 nM. Further, the “Predicted Hepatic Clearance (Pred. Cl.)” value in data set [2] was 1.83 mL/min/kg.
`COCCn1c(Cc2cc(F)c(-c3cccc(OCc4ccc(C(F)(F)F)nc4)n3)cc2F)nc2ccc(C(=O)O)cc21` [Example 861]: the concentration giving a half-maximal response (EC50) in data set [1] (setting [3]) worked out at 16.5 nM. Further, the “Predicted Hepatic Clearance (Pred. Cl.)” value in data set [2] is 1.83 mL/min/kg.
As for `COCCn1c(Cc2cc(F)c(-c3cccc(OCc4cnc(C(F)(F)F)s4)n3)cc2F)nc2ccc(C(=O)O)cc21` [Example 862], the EC50 in data set [1] (setting [3]) worked out at 16.2 nM. In data set [2], the “Predicted Hepatic Clearance (Pred. Cl.)” value was 4.33 mL/min/kg.
Consider `COCCn1c(Cc2cc(F)c(-c3cccc(OCc4cc(F)c(C(F)F)cc4F)n3)cc2F)nc2ccc(C(=O)O)cc21` [Example 863], for which the EC50 in data set [1] (setting [3]) was determined as 5.51 nM. The “Predicted Hepatic Clearance (Pred. Cl.)” value in data set [2] is 4.83 mL/min/kg.
On to `COCCn1c(Cc2cc(F)c(-c3cccc(OCc4ccc(-n5cccn5)nc4)n3)cc2F)nc2ccc(C(=O)O)cc21` [Example 865], for which the EC50 in data set [1] (setting [3]) came out at 29.8 nM. For the same compound, the “Predicted Hepatic Clearance (Pred. Cl.)” value in data set [2] was 4.33 mL/min/kg.
For the compound `COCCn1c(Cc2cc(F)c(-c3cccc(OCc4ccc(OC)nc4)n3)cc2F)nc2ccc(C(=O)O)cc21` [Example 866, 2-[[2,5-difluoro-4-[6-[(6-methoxy-3-pyridyl)methoxy]-2-pyridyl]phenyl]methyl]-3-(2-methoxyethyl)benzimidazole-5-carboxylic acid], the EC50 in data set [1] (setting [3]) is 16.1 nM. Further, in data set [2], the “Predicted Hepatic Clearance (Pred. Cl.)” value was 8.17 mL/min/kg.
The matching figures for `COCCn1c(Cc2cc(F)c(-c3cccc(OCc4cc(F)c(C(F)(F)F)cc4F)n3)cc2F)nc2ccc(C(=O)O)cc21` [Example 867]: 2.41 nM and 1.83 mL/min/kg.
Turning to `COCCn1c(Cc2cc(F)c(-c3cccc(OCc4ccc(C(F)(F)F)cn4)n3)cc2F)nc2ccc(C(=O)O)cc21` [Example 868], in data set [1] (setting [3]), the EC50 was found to be 5.48 nM. The “Predicted Hepatic Clearance (Pred. Cl.)” value in data set [2] is 3.5 mL/min/kg.
The matching figures for `COCCn1c(Cc2cc(F)c(-c3cccc(OCc4ccc(Cl)cn4)n3)cc2F)nc2ccc(C(=O)O)cc21` [Example 869]: 6.28 nM and 6.5 mL/min/kg.
In the case of `COCCn1c(Cc2cc(F)c(-c3cccc(OCc4ccc(C#N)cn4)n3)cc2F)nc2ccc(C(=O)O)cc21` [Example 870], the 50% effective concentration (EC50) in data set [1] (setting [3]) worked out at 17.6 nM. Also, in data set [2], the “Predicted Hepatic Clearance (Pred. Cl.)” value was 1.83 mL/min/kg.
On the same counts, the results for `COCCn1c(Cc2cc(F)c(-c3cccc(OCc4cc(C)c(C(F)(F)F)cc4F)n3)cc2F)nc2ccc(C(=O)O)cc21` [Example 871] are 30.8 nM and 2 mL/min/kg.
As for `COCCn1c(Cc2cc(F)c(-c3cccc(OCc4ccc(C(F)(F)F)c(F)c4F)n3)cc2F)nc2ccc(C(=O)O)cc21` [Example 872, 2-[[4-[6-[[2,3-difluoro-4-(trifluoromethyl)phenyl]methoxy]-2-pyridyl]-2,5-difluoro-phenyl]methyl]-3-(2-methoxyethyl)benzimidazole-5-carboxylic acid], in data set [1] (setting [3]), the EC50 is 5.09 nM. In addition, the “Predicted Hepatic Clearance (Pred. Cl.)” value in data set [2] was 1.83 mL/min/kg.
With `COCCn1c(Cc2cc(F)c(-c3cccc(OCc4cccc5c4COC5)n3)cc2F)nc2ccc(C(=O)O)cc21` [Example 873], the EC50 in data set [1] (setting [3]) is 83.8 nM. Further, in data set [2], the “Predicted Hepatic Clearance (Pred. Cl.)” value was 12.2 mL/min/kg.
The matching figures for `COCCn1c(Cc2cc(F)c(-c3cccc(OCc4ccc(Br)c5c4COC5)n3)cc2F)nc2ccc(C(=O)O)cc21` [Example 874]: 34.7 nM and 1.83 mL/min/kg.
On the same counts, the results for `COCCn1c(Cc2cc(F)c(-c3cccc(OCc4ccc(C(C)=O)cc4)n3)cc2F)nc2ccc(C(=O)O)cc21` [Example 875] are 2.32 nM and 9.33 mL/min/kg.
In the case of `COCCn1c(Cc2cc(F)c(-c3cccc(OCc4cccc(Br)c4)n3)cc2F)nc2ccc(C(=O)O)cc21` [Example 876], in data set [1] (setting [3]), the concentration for a half-maximal effect (EC50) came to 27.6 nM. For the same compound, the “Predicted Hepatic Clearance (Pred. Cl.)” value in data set [2] is 1.83 mL/min/kg.
As for `O=C(O)c1ccc2nc(Cc3cc(F)c(-c4nc(OCc5ccc(C(F)F)cc5F)ncc4F)cc3F)n(C[C@@H]3CCO3)c2c1` [Example 877], the EC50 in data set [1] (setting [3]) stood at 0.51 nM. Further, in data set [2], the “Predicted Hepatic Clearance (Pred. Cl.)” value is 7.17 mL/min/kg.
